Results taken from US20040009599A1, “Antisense modulation of cellular inhibitor of apoptosis-1 expression” (priority 1998, published 2004).
Strand notation (5' to 3'): a small letter for the sugar, then the base; units joined by * are phosphorothioate-linked, units joined directly phosphodiester-linked; [ ] holds rarer units or linkages, { } end groups; capitals alone tell only the bases. d = 2'-deoxy (DNA)

test system: human Cellular Inhibitor of Apoptosis-1 RNA; assay: Inhibition of Cellular Inhibitor of Apoptosis-1 mRNA levels by quantitative real-time PCR after oligonucleotide treatment of cells; format: cell-based; conditions: phosphorothioate oligodeoxynucleotides; oligonucleotide at final concentration of 150 nM with LIPOFECTIN; real-time PCR; averages from three experiments
Description: Cells were harvested 16 hours after oligonucleotide treatment.
Poly(A)+ mRNA was isolated according to Miura et al., Clin. Chem., 1996, 42, 1758-1764. Other methods for poly(A)+ mRNA isolation are taught in, for example, Ausubel, F. M. et al., Current Protocols in Molecular Biology, Volume 1, pp. 4.5.1-4.5.3, John Wiley & Sons, Inc., 1993. […] 60 μL lysis buffer (10 mM Tris-HCl, pH 7.6, 1 mM EDTA, 0.5 M NaCl, 0.5% NP-40, 20 mM vanadyl-ribonucleoside complex) was added to each well, the plate was gently agitated and then incubated at room temperature for five minutes. 55 μL of lysate was transferred to Oligo d(T) coated 96-well plates (AGCT Inc., Irvine Calif.). Plates were incubated for 60 minutes at room temperature, washed 3 times with 200 μL of wash buffer (10 mM Tris-HCl pH 7.6, 1 mM EDTA, 0.3 M NaCl). After the final wash, the plate was blotted on paper towels to remove excess wash buffer and then air-dried for 5 minutes. 60 μL of elution buffer (5 mM Tris-HCl pH 7.6), preheated to 70° C. was added to each well, the plate was incubated on a 90° C. hot plate for 5 minutes, and the eluate was then transferred to a fresh 96-well plate.
Cellular Inhibitor of Apoptosis-1 probes and primers were designed to hybridize to the human Cellular Inhibitor of Apoptosis-1 sequence, using published sequence information (GenBank accession number U37547, incorporated herein as SEQ ID NO:1).
For Cellular Inhibitor of Apoptosis-1 the PCR primers were: […]
Target sites are indicated by nucleotide numbers, as given in the sequence source reference (Genbank accession no. U37547), to which the oligonucleotide binds. All compounds in Table 1 are oligodeoxynucleotides with phosphorothioate backbones (internucleoside linkages) throughout. […] Data are averages from three experiments. If present, “N.D.” indicates “no data”.

Row | Substance | % Inhibition of Cellular Inhibitor of Apoptosis-1 mRNA levels [%]
1 | ISIS 23361: phosphorothioate oligodeoxynucleotide taccttgaatctcatcaa, Coding target site 2193 (antisense dT*dA*dC*dC*dT*dT*dG*dA*dA*dT*dC*dT*dC*dA*dT*dC*dA*dA) | 0
2 | ISIS 23362: phosphorothioate oligodeoxynucleotide ataattggtgggtcagca, Coding target site 2269 (antisense dA*dT*dA*dA*dT*dT*dG*dG*dT*dG*dG*dG*dT*dC*dA*dG*dC*dA) | 0
3 | ISIS 23363: phosphorothioate oligodeoxynucleotide ttttactttgaactgttt, Coding target site 2391 (antisense dT*dT*dT*dT*dA*dC*dT*dT*dT*dG*dA*dA*dC*dT*dG*dT*dT*dT) | 0
4 | ISIS 23364: phosphorothioate oligodeoxynucleotide catttcttcagcttgttt, Coding target site 2501 (antisense dC*dA*dT*dT*dT*dC*dT*dT*dC*dA*dG*dC*dT*dT*dG*dT*dT*dT) | 0
5 | ISIS 23365: phosphorothioate oligodeoxynucleotide tcgcttgtaaaggtatct, Coding target site 2661 (antisense dT*dC*dG*dC*dT*dT*dG*dT*dA*dA*dA*dG*dG*dT*dA*dT*dC*dT) | 0
6 | ISIS 23366: phosphorothioate oligodeoxynucleotide attcttatccacaaataa, Coding target site 2774 (antisense dA*dT*dT*dC*dT*dT*dA*dT*dC*dC*dA*dC*dA*dA*dA*dT*dA*dA) | 0
7 | ISIS 23367: phosphorothioate oligodeoxynucleotide gaccacaaggaataaata, Coding target site 2904 (antisense dG*dA*dC*dC*dA*dC*dA*dA*dG*dG*dA*dA*dT*dA*dA*dA*dT*dA) | 0
8 | ISIS 23368: phosphorothioate oligodeoxynucleotide ttagatggcttcaagtgt, 3′ UTR target site 3071 (antisense dT*dT*dA*dG*dA*dT*dG*dG*dC*dT*dT*dC*dA*dA*dG*dT*dG*dT) | 10
9 | ISIS 23369: phosphorothioate oligodeoxynucleotide atatagttcaccaaacat, 3′ UTR target site 3222 (antisense dA*dT*dA*dT*dA*dG*dT*dT*dC*dA*dC*dC*dA*dA*dA*dC*dA*dT) | 0
10 | ISIS 23370: phosphorothioate oligodeoxynucleotide ttcctggtttccagttct, 3′ UTR target site 3355 (antisense dT*dT*dC*dC*dT*dG*dG*dT*dT*dT*dC*dC*dA*dG*dT*dT*dC*dT) | 46
11 | ISIS 23371: phosphorothioate oligodeoxynucleotide agtgaaaagcaccaaaga, 3′ UTR target site 3407 (antisense dA*dG*dT*dG*dA*dA*dA*dA*dG*dC*dA*dC*dC*dA*dA*dA*dG*dA) | 0

same assay, conditions: summary of Table 1; real-time PCR of mRNA levels

Row | Substance | inhibition of Cellular Inhibitor of Apoptosis-1 expression
12 | ISIS 23370: phosphorothioate oligodeoxynucleotide ttcctggtttccagttct, 3′ UTR target site 3355 (antisense dT*dT*dC*dC*dT*dG*dG*dT*dT*dT*dC*dC*dA*dG*dT*dT*dC*dT) | at least 20%
